Molecular target: Muscarinic acetylcholine receptor M4 (Homo sapiens) (UniProt P08173)
Assay: human M4 positive allosteric modulators, dose response, cell-based, calcium flux, Millipore GPCR Profiler (AID 449765)
Details: M4-expressing cells, calcium flux fluorescence

Chain of Muscarinic acetylcholine receptor M4 (Homo sapiens) (P08173 whole entry, looked up): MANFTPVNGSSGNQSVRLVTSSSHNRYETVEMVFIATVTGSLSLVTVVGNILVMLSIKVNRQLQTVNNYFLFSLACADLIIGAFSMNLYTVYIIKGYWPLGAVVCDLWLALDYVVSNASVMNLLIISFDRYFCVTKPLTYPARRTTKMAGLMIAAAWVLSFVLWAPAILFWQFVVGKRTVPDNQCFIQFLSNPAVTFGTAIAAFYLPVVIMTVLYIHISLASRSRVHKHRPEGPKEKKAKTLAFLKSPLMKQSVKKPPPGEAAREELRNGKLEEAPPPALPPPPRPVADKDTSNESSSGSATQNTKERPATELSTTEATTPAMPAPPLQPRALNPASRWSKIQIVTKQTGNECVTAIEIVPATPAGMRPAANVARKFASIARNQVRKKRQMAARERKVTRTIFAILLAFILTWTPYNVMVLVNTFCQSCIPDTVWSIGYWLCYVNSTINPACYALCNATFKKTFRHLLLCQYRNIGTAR

EC50 | Structure (SMILES)
183 nM | Cc1cc(OCc2ccncc2)nc2sc(C(=O)NCc3cc(F)ccc3F)c(N)c12
95.3 nM | Cc1cc(OCc2ccncc2)nc2sc(C(=O)NCc3cccc(F)c3F)c(N)c12
100 nM | COc1ccc(CNC(=O)c2sc3nc(OCc4ccncc4)cc(C)c3c2N)cc1
192 nM | Cc1cc(OCCN2CCOCC2)nc2sc(C(=O)NC(C)(C)C)c(N)c12

Reference: PubChem BioAssay AID449765 (Vanderbilt High Throughput Screening Facility, 2010)
